Laboratory results as given in patent publication EP0525836B1, “Assay method using novel NAD synthetase” (priority 1986, dated 1988).

Key:
NAD synthetase [1] = target: T1, NAD synthetase (Geobacillus stearothermophilus ATCC 12980, UniProt A0ACH1E6M2); assay: biochemical; assay type: biochemical, Bacillus stearothermophilus H-804; settings: for Relative activity: which contains MgCℓ2 5 mM, no addition = 100
T1 sequence (A0ACH1E6M2 1-246): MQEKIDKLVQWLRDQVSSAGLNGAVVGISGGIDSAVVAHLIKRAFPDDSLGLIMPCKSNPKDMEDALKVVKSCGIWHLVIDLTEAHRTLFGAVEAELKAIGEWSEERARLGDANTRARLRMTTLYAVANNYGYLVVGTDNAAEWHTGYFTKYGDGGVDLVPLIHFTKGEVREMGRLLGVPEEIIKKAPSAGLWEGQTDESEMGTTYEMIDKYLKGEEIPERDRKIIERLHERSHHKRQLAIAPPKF
Protocol: In the enzyme activity assay, each metallic ion ( 5 mM ), EDTA ( 20 mM ) or each surface active agent ( 0.1 % ) in Table 1 is added separately to the reaction medium I, and the enzyme activity is measured. […]
(§1) • 50 mM Tris-HC ℓ buffer pH 8.0 • 1 mM K C ℓ • 5 mM MgC ℓ 2 • 0.05 % bovine serum albumin • 2 mM ATP • 0.5 mM deamide-NAD • 25 mM ( NH4 )2 SO4
(§2) • 50 mM Tris-HCℓ buffer pH 8.0 • 10 U diaphorase ( Toyo Jozo Co. from genus Bacillus) • 3 % ethanol • 10 U alcohol dehydrogenase/m ℓ ( Toyo Jozo, yeast ) • 0.025 % NTB ( nitrotetrazolium blue ) • 0.1 % Triton X-100 • 10 mM EDTA
(§3) Reaction medium I ( 0.3 mℓ ) in a test tube is pre-incubated at 37 °C, and the enzyme solution ( 5 µ ℓ ) is added thereto. The mixture is then incubated at 37 °C for exactly 10 minutes.
(§4) Reaction medium II ( 0.8 mℓ ) is added thereto to stop the reaction and simultaneously to start the cycling reaction at 37°C for exactly 5 minutes. After stopping the cycling reaction by adding 0.1 N-HC ℓ( 2.0 mℓ) , the absorbency at 550 nm is measured to calculate the enzyme activity. The enzyme activity is calculated by the following equation : NAD synthetase activity ( mU/ m ℓ ) = (ΔA550)/(ΔS550)x(1.0)/(0.005)x(f)/(10) [formula] wherein ΔA: absorbency of specimen, ΔS: absorbency of standard solution ( 0.1 mM NAD ), 0.005: specimen volume ( mℓ ) 10 : reaction time, f : dilution ration.

NAD synthetase [2] = target: T1, NAD synthetase; assay: Substrate specificity: ( NH4 ) 2SO4 replaced by amino acids in the enzyme activity assay; assay type: biochemical, Bacillus stearothermophilus H-804; settings: ( NH4 ) 2SO4 25 mM replaced by the amino acid, activity on ( NH4 ) 2SO4 is 100; for activity at 25000 µM: read-out: Relative activity of the enzyme
Protocol: In any assay method for enzyme activity hereinafter described, ( NH4 ) 2SO4 25 mM may be replaced by L-valine, L-homosirine, L-serine, L-alanine, L-methine, L-tyrosine, L-threonine, L-leucine, L-isolucine, L-arginine, L-phenylalanine, L-histidine, L-asparagine or L-glutamine, and the enzymatic activity measured.
as §1, §2, §3, §4

[3] = target: NAD synthetase ( EC 6.3.1.5 ) (Escherichia coli, UniProt P18843); settings: read-out: km-value, literature value; cited from earlier work
NAD synthetase [4] = target: T1, NAD synthetase; assay: Optimum concentration of metallic ion (Example 8); assay type: biochemical, Bacillus stearothermophilus H-804; settings: 0.25 to 4 mM tested in reaction medium I without MgCℓ2
Protocol: Reaction medium I : • 50 mM Tris-HC ℓ buffer pH 8.0 • 10 mM KC ℓ • 2 mM ATP • 0.05 % bovine serum albumin • 0.5 mM deamide-NAD • 25 mM ( NH4 )2SO4
Reaction medium II: • 50 mM Tris-HC ℓ buffer pH 8.0 • 10 U diaphorase/m ℓ ( Toyo Jozo Co, Bacillus ) • 3 % ethanol • 10 U alcohol dehydrogenase/mℓ (Toyobo Co, yeast) • 0.025 % NTB • 0.1 % Triton X-100 • 10mM EDTA
To a reaction medium I in a test tube were added 0.25, 0.50, 0.75, 1, 2, 3 and 4 mM MgCℓ2 and 0.25, 0.50, 0.75, 1, 2, 3 and 4 mM MnCℓ2, respectively; each was then treated, after adding the present NAD synthetase solution, according to an assay method as previously illustrated.
Optimum concentration of MnCℓ2 is at 3mM.

[5] = metallic ion 5 mM added to reaction medium I, 10 min
[6] = surface active agent 0.1 % added to reaction medium I

NAD synthetase ( EC 6.3.1.5 ), sequence (P18843 whole entry): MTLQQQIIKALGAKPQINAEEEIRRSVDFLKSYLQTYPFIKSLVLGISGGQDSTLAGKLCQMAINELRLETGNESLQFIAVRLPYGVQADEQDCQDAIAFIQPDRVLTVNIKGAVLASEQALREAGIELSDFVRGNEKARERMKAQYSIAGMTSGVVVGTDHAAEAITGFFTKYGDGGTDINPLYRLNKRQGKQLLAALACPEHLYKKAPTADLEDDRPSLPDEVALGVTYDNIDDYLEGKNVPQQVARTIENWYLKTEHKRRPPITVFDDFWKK

| Compound | Relative activity (NAD synthetase [1]; [5]) [%] | activity at 25000 µM (NAD synthetase [2]) [%] | other results |
| --- | --- | --- | --- |
| NiCℓ2 | 7.3 |  | Effect on enzyme activity (NAD synthetase [1]; 5 mM in reaction medium I): inhibited |
| C[C@@H](O)[C@H](N)C(=O)O [L-threonine] |  | 0 |  |
| N[C@@H](Cc1ccccc1)C(=O)O [L-phenylalanine] |  | 0 |  |
| Nonidet P-40 |  |  | Relative activity (NAD synthetase [1]; [6]): 103.9% |
| N[C@@H](Cc1ccc(O)cc1)C(=O)O [L-tyrosine] |  | 0 |  |
| CSCC[C@H](N)C(=O)O [L-methine] |  | 0 |  |
| NaNO3 | 96.8 |  |  |
| NaCℓ | 102.4 |  |  |
| C[C@H](N)C(=O)O [L-alanine] |  | 0 |  |
| N[C@@H](CCO)C(=O)O [L-homosirine] |  | 0 |  |
| CaCℓ2 | 48.4 |  |  |
| ammonium sulfate [( NH4 ) 2SO4] |  |  | Relative activity of the enzyme (NAD synthetase [2]): 100 |
| O=C(O)CN(CCN(CC(=O)O)CC(=O)O)CC(=O)O [EDTA, reference compound] |  |  | Effect on enzyme activity (NAD synthetase [1]; 20000 µM): no activity; activity at 20000 µM (NAD synthetase [1]; read-out: Relative activity): 0% |
| NC(=O)CC[C@H](N)C(=O)O [L-glutamine] |  | 0 | Km [3]: 16 mM |
| CsCℓ | 100 |  |  |
| FeCℓ3 | 88.4 |  |  |
| NC(=O)C[C@H](N)C(=O)O [L-asparagine] |  | 0 |  |
| MnCℓ2 | 54.0 |  | Optimum concentration (NAD synthetase [4]): 3 mM |
| CC(C)[C@H](N)C(=O)O [L-valine] |  | 0 |  |
| CC[C@H](C)[C@H](N)C(=O)O [L-isolucine] |  | 0 |  |
| CC(C)C[C@H](N)C(=O)O [L-leucine] |  | 0 |  |
| N=C(N)NCCC[C@H](N)C(=O)O [L-arginine] |  | 0 |  |
| N[C@@H](Cc1c[nH]cn1)C(=O)O [L-histidine] |  | 0 |  |
| iso-octyl phenoxy polyethyloxy ethanol [Triton X-100] |  |  | Relative activity (NAD synthetase [1]; [6]): 109.6% |
| BaCℓ2 | 89.5 |  |  |
| NaN3 | 102.4 |  |  |
| AℓCℓ3 | 73.4 |  |  |
| KNO3 | 99.2 |  |  |
| LiCℓ | 100 |  |  |
| N[C@@H](CO)C(=O)O [L-serine] |  | 0 |  |
